Source: PubChem BioAssay (NCI)
Where “and” joins values, the source holds several entries; their conditions need not be identical. Identical values can stand only once.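 Each compound was tested at five concentrations against cells in 96-well plates for 48 hours. Abbreviation: GI50, concentration required for 50% inhibition of growth. TGI: total growth inhibition.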

Columns and labels:
Test in all cases: inhibition of tumour cell growth, NCI panel, 48 h
SF-268 CNS = system: SF-268 CNS
HS 578T breast = system: HS 578T breast
MOLT-4 leukemia = system: MOLT-4 leukemia
MDA-MB-231 breast = system: MDA-MB-231 breast
RXF 393 renal = system: RXF 393 renal
TK-10 renal = system: TK-10 renal
SNB-75 CNS = system: SNB-75 CNS
786-0 renal = system: 786-0 renal
M14 melanoma = system: M14 melanoma
IGROV1 ovarian = system: IGROV1 ovarian

| Compound | GI50 (SF-268 CNS) | TGI (SF-268 CNS) | GI50 (HS 578T breast) | TGI (HS 578T breast) [µM] | GI50 (MOLT-4 leukemia) | TGI (MOLT-4 leukemia) | GI50 (MDA-MB-231 breast) | TGI (MDA-MB-231 breast) [µM] | GI50 (RXF 393 renal) [µM] | TGI (RXF 393 renal) [µM] | GI50 (TK-10 renal) [µM] | TGI (TK-10 renal) | GI50 (SNB-75 CNS) | TGI (SNB-75 CNS) | GI50 (786-0 renal) | TGI (786-0 renal) | GI50 (M14 melanoma) | TGI (M14 melanoma) | GI50 (IGROV1 ovarian) | TGI (IGROV1 ovarian) |
| --- | --- | --- | --- | --- | --- | --- | --- | --- | --- | --- | --- | --- | --- | --- | --- | --- | --- | --- | --- | --- |
| CCCCCCCC(=O)SCC/C=C/[C@@H]1CC(=O)NCc2nc(cs2)C2=N[C@@](C)(CS2)C(=O)N[C@@H](C(C)C)C(=O)N1 | 0.0769 µM | > 50.5 µM | 0.0183 µM | 38 | < 0.0112 µM | > 100 µM | 0.0286 µM | 31.5 | < 0.0112 | 0.0695 | 0.0175 | 0.316 µM | 0.0312 µM | > 69 µM | 0.139 µM | 19.7 µM | 0.0323 µM | > 100 µM | 0.0153 µM | 1.8 µM |
| COc1cc(OC)c(OC)cc1/C=C/c1cnnc2ccccc12 |  | > 10 µM |  | > 10 |  | > 10 µM |  | > 10 |  | > 10 |  | > 10 µM |  | > 10 µM |  | > 10 µM |  | > 10 µM |  | > 10 µM |
| CC([C@H]1CC=C2C3CCC4=C[C@@H](N(C)C)CC[C@]4(C)C3CC[C@@]21C)N(C)C (stereo not given in full) | 1.98 µM | 4.71 µM | 3.24 µM | 13.6 | 1.97 µM | 5.31 µM | 2.33 µM | 7.9 | 4.28 | 17.3 | 5.42 | 20 µM | 3.3 µM | 10.6 µM | 2.94 µM | 7.99 µM | 1.76 µM | 3.53 µM | 4.88 µM |  |
| Cc1nc2ccccn2c1NC(=O)NNC(=S)Nc1ccc(F)cc1 | > 100 µM | > 100 µM | > 100 µM | > 100 | 20.4 µM | > 100 µM | > 100 µM | > 100 | > 100 | > 100 | > 100 | > 100 µM | > 100 µM | > 100 µM | > 100 µM | > 100 µM | > 100 µM | > 100 µM | > 100 µM | > 100 µM |
| Cc1ccc2c(c1)C(=O)c1c-2c(OCCCN(C)C)nc2ccccc12 | 2.3 µM | 12.9 µM | 4.24 µM | 19.8 | 0.427 µM | 4.57 µM | 1.64 µM | 5.45 | 2.26 | 12.7 | 7.9 | 23.3 µM | 2.22 µM | 15.5 µM | 2.98 µM | 18.1 µM | 1.62 µM | 3.23 µM | 1.74 µM | 9.94 µM |
| O=C(Nc1ccc(F)cc1)Nc1ccc(Br)c(C(F)(F)F)c1 | 2.97 µM | 13.2 µM | 2.95 µM | 9.31 | 1.95 µM | 5.53 µM | 2.18 µM | 5.33 | 2.66 | 8.28 | 2.33 | 7.43 µM | 1.79 µM | 5.38 µM | 2.42 µM | 8.17 µM | 2.29 µM | 7.41 µM | 3.58 µM | 15.2 µM |
| C=C1SC(=Nc2ccccc2Cl)N(C(=O)c2sc3ccccc3c2Cl)C12CCCCC2 | 11.7 µM | > 100 µM | 4.84 µM | > 100 | 4.72 µM | > 100 µM | 4.9 µM | > 100 | 15.2 | 88.7 | 15.2 | > 100 µM | 14 µM | > 100 µM | 37.9 µM | > 100 µM | 45.1 µM | > 100 µM | 9.66 µM | > 100 µM |
| COc1ccc(NC(=O)c2sc3nc(C)c(C(=O)/C=C/c4cccc(OC)c4)cc3c2N)cc1 | 2.07 µM | 14.1 µM | 4.5 µM | > 50 | 1.5 µM | > 50 µM | 1.66 µM | > 50 | 0.916 | 1.84 | 1.91 | 15.3 µM | 1.45 µM | 4.87 µM | 0.856 µM | 1.85 µM | 1.78 µM | 18.7 µM | 1.03 µM | 2.83 µM |
| COC(=O)Nc1nc2ccc(C(=O)c3ccccc3)cc2[nH]1 | 1.76 µM and 0.535 µM | > 100 µM | 0.518 µM and 0.2 µM | > 100 | 0.536 µM and 0.393 µM | > 45.8 µM | 1.05 µM and 1.25 µM | > 100 | 0.368 | 2.19 |  | > 100 µM | 0.256 µM and 0.0866 µM | > 100 µM and 17 µM | 0.593 µM and 0.72 µM | > 100 µM | 0.427 µM and 0.257 µM | 6.6 µM | 1.01 µM and 0.565 µM | > 100 µM and 52.9 µM |
| Cc1c(N)nc(C(CC(N)=O)NCC(N)C(N)=O)nc1C(=O)NC(C(=O)NC(C)C(O)C(C)C(=O)NC(C(=O)NCCc1nc(-c2nc(C(=O)NCCCNC(C)c3ccccc3)cs2)cs1)C(C)O)C(OC1OC(CO)C(O)C(O)C1OC1OC(CO)C(O)C(OC(N)=O)C1O)c1cnc[nH]1 (stereo not given) | 11.1 µM | 50 µM and 94.7 µM |  | 0.727 | 3.75 µM | 25.9 µM and > 100 µM | > 100 µM | > 100 |  | 2.82 | > 100 | 50 µM and > 100 µM | 1.5 µM | 5.03 µM and 8.77 µM | 1.38 µM | 43.7 µM and 33.9 µM | 5.13 µM | 29.6 µM and > 100 µM | 8.21 µM | 50 µM and > 100 µM |
| O=CN1N=C(c2cccc(Nc3ccnc4cc(Cl)ccc34)c2)CC1c1ccccc1 (stereo not given) | 0.768 µM | 41.2 µM | 0.248 µM | 3.4 | 0.383 µM | 2.77 µM | 0.858 µM | > 21.3 | 0.336 | 3.58 | 0.345 | 16.4 µM | 0.191 µM | 1.83 µM | 0.543 µM | 18 µM | 0.284 µM | 6.75 µM | 0.687 µM | > 100 µM |
| Cn1c(-c2ccccc2)c(/C=C/C2=[N+](C)c3ccccc3C2(C)C)c2ccccc21 | 1.32 µM | 12.9 µM | 1.08 µM | 16.6 | 1.06 µM | 4.06 µM | 2.18 µM | 22.8 | 2.55 | 12.6 | 1.35 | 11.5 µM | 1.63 µM | 10.7 µM | 2.18 µM | 9.02 µM | 0.963 µM | 3.4 µM | 1.87 µM | 6.07 µM |
| O=C(C#Cc1ccccc1)C1=Cc2ccccc2OC1 |  | 12.5 µM |  | 23.8 |  | > 100 µM |  | 10.5 |  | 9.78 |  | 3.58 µM |  | 13.3 µM |  | 6.17 µM |  | 8.21 µM |  | 6.37 µM |
| CN(C)CCCC1(c2ccc(F)cc2)OCc2cc(-c3cc4ccccc4s3)ccc21 (stereo not given) | 1.65 µM | 3.29 µM | 1.8 µM | 3.96 | 1.52 µM | 3.08 µM | 1.52 µM | 2.95 | 1.42 | 2.86 | 1.7 | 3.13 µM | 1.24 µM | 2.58 µM | 1.76 µM | 3.37 µM | 1.59 µM | 3.13 µM | 1.14 µM | 2.46 µM |
| Clc1ccc2nc(CI)c(CI)nc2c1 | 4.69 µM | 14.3 µM | 20.6 µM | > 65.5 | 1.89 µM | 9.08 µM | 2.67 µM | 7.58 | 4.04 | 9.36 | 3 | 10.2 µM | 8.87 µM | 23.2 µM | 4.07 µM |  | 3.16 µM | > 19.8 µM | 2.73 µM | 8.36 µM |
| C[C@]12CC[C@H]3[C@@H](CC4SC(N)=NC45C/C(=N/NC(N)=O)CC[C@]35C)[C@@H]1CCC2=O (stereo not given in full) | 1.78 µM | 4.11 µM | 2.08 µM | 5.15 | 2.64 µM | 7.02 µM | 1.7 µM | 3.43 | 1.61 | 3.23 | 2.29 | 5.45 µM | 1.58 µM | 3.5 µM | 1.39 µM | 2.82 µM | 1.94 µM | 3.77 µM | 1.78 µM | 3.43 µM |
| C[n+]1c2ccccc2nc2ccccc21 | 2.52 µM | 7.78 µM | 0.953 µM | 3.72 | 4.19 µM | > 23.5 µM | 0.359 µM | 2.12 | 1.7 | 4.29 | 2.71 | 13 µM | 1.38 µM | 3.1 µM | 2.31 µM | 8.47 µM | 1.67 µM | 3.89 µM | 2.86 µM | 14 µM |
| O=C(/C=C1\C(=O)N(Cc2ccccc2)c2ccccc21)c1ccc(OCCN2CCCCC2)cc1 | 2.98 µM | 10.7 µM | 3 µM | 9.91 | 1.87 µM | 6.44 µM | 1.92 µM | 3.88 | 1.65 | 3.17 | 1.58 | 2.97 µM | 11.8 µM | 24.4 µM | 1.58 µM | 3.06 µM | 1.92 µM | 3.72 µM | 1.76 µM | 3.55 µM |
